Experiments:
Details in all cases: 2 hr; for Percent killing of NRel: NRel induced with 5 μg HuTipMab
[1] = test system: M. abscessus clinical isolate 3; assay: Antibiotic mediated killing of planktonic and NRel M. abscessus clinical isolate 3
Procedure: (§1) To determine relative susceptibility of planktonic NTM to amikacin, biofilms were prepared and gently washed twice with DPBS as described above, then treated with 200 μL of either: 7H9 (growth control); 7H9+0.5 μg amikacin/mL for M. abscessus 19977, +12 μg amikacin/mL for M. avium, +0.7 μg amikacin/mL for M. abscessus clinical isolate 1 or +lug amikacin/mL for M. abscessus clinical isolate 3. […] Treated biofilms were incubated statically at 37° C. in 5% CO2 and humidity for 2 hr, after which 150 μL was collected from each well and dispensed into 1.5 mL Eppendorf microcentrifuge tubes, then pulse-vortexed with two sterile 3 mm glass beads (Fisher Scientific International, Inc., Hampton, NH) to disrupt aggregates. Suspensions were gently sonicated for 2 min in a waterbath sonicator (Ultrasonic Bath 2.8 L, Fisher Scientific) to further disrupt any aggregates. After sonication, samples were diluted and plated on Middlebrook 7H10 agar and incubated at 37° C. with 5% CO2 in a humidified atmosphere to assess relative CFU.
(§2) To determine azithromycin-mediated killing, the same protocol as above was used with one adjustment. […] Wells were treated with 200 μL of either: 7H9 (growth control); 7H9+5 μg azithromycin/mL for M. abscessus 19977, +16 μg azithromycin/mL for M. avium, +10 μg azithromycin/mL for M. abscessus clinical isolate 1, or +8 μg azithromycin/mL for M. abscessus clinical isolate 3. […] Percent killing was then calculated as [growth control CFU/mL-NRel or planktonic CFU/mL]/[growth control CFU/mL].

[2] = test system: M. abscessus clinical isolate 1; assay: Antibiotic mediated killing of planktonic and NRel M. abscessus clinical isolate 1
Procedure: as §1, §2

M. abscessus 19977 = assay: Antibiotic mediated killing of planktonic and newly released (NRel) M. abscessus 19977
Procedure: as §1, §2

M. avium = assay: Antibiotic mediated killing of planktonic and newly released (NRel) M. avium
Procedure: as §1, §2

Q: With `CC[C@H]1OC(=O)[C@H](C)[C@@H](O[C@H]2C[C@@](C)(OC)[C@@H](O)[C@H](C)O2)[C@H](C)[C@@H](O[C@@H]2O[C@H](C)C[C@H](N(C)C)[C@H]2O)[C@](C)(O)C[C@@H](C)CN(C)[C@H](C)[C@@H](O)[C@]1(C)O` [azithromycin, Azithromycin] as the compound, how does the “Percent killing of NRel” value ([1]; 8 μg azithromycin/mL) read?
A: The value was 45%.

Q: And the “Percent killing of planktonic bacteria” value ([1]; 8 μg azithromycin/mL)?
A: The value was 25%.

Q: And the “Percent killing of NRel” value ([2]; 10 μg azithromycin/mL)?
A: Its value is 47%.

Q: And the “Percent killing of planktonic bacteria” value ([2]; 10 μg azithromycin/mL)?
A: The value was 28%.

Q: And the “Percent killing of NRel” value (M. abscessus 19977; 5 μg azithromycin/mL (½ MIC))?
A: The value was 42%.

Q: And the “Percent killing of planktonic bacteria” value (M. abscessus 19977; 5 μg azithromycin/mL (½ MIC))?
A: Its value is 20%.

Q: What about the “Percent killing of NRel” value (M. avium; 16 μg azithromycin/mL (½ MIC)) of the same compound?
A: Its value is 36%.

Q: And the “Percent killing of planktonic bacteria” value (M. avium; 16 μg azithromycin/mL (½ MIC))?
A: The value was 19%.

Q: Which results are given for `NCC[C@H](O)C(=O)N[C@@H]1C[C@H](N)[C@@H](O[C@H]2O[C@H](CN)[C@@H](O)[C@H](O)[C@H]2O)[C@H](O)[C@H]1O[C@H]1O[C@H](CO)[C@@H](O)[C@H](N)[C@H]1O` [amikacin, Amikacin]?
A: Percent killing of NRel ([1]; lug amikacin/mL): 47%; Percent killing of planktonic bacteria ([1]; lug amikacin/mL): 21%; Percent killing of NRel ([2]; 0.7 μg amikacin/mL): 45%; Percent killing of planktonic bacteria ([2]; 0.7 μg amikacin/mL): 28%; Percent killing of NRel (M. abscessus 19977; 0.5 μg amikacin/mL (¼ MIC)): 61%; Percent killing of planktonic bacteria (M. abscessus 19977; 0.5 μg amikacin/mL (¼ MIC)): 23%; Percent killing of NRel (M. avium; 12 μg amikacin/mL (¼ MIC)): 41%; Percent killing of planktonic bacteria (M. avium; 12 μg amikacin/mL (¼ MIC)): 17%
